Measurements from article PMC9541272, “Carba Analogues of Flupirtine and Retigabine with Improved Oxidation Resistance and Reduced Risk of Quinoid Metabolite Formation” (Chemmedchem, 2022).
Entries after “also recorded” stand apart in the source; their conditions may differ. Read-outs that look alike come from different tables or passages of the source.

How the values were obtained:
[1] = LogD7.4 estimation by HPLC-based method; format: physicochemical; settings: for logD7.4 (single determination): calculated from retention time with one calibration function (A–F)
Description: The logarithm of the capacity factors of the reference substances was then plotted against the corresponding logP values taken from the mentioned guideline to obtain a calibration function. For non‐ionizable compounds like the reference substances used for calibration, logP values can be considered equivalent to the logD 7.4 values. To obtain a reference mixture, 2 mg of the reference substances were each dissolved in 1 mL of methanol, and 50 μL aliquots of each reference solution were subsequently combined. The reference mixture was measured before and after the substances to be tested, and the mean retention time from both measurements was used to calculate the calibration function. The calibration function was then used to determine the logD 7.4 values from the corresponding retention times for each substance to be tested. The compounds of interest were injected as a solution in methanol (2 mg/mL), and the retention time was determined as the mean value from two measurements.

[2] = Cyclic voltammetry, anodic peak potential (oxidizability); format: physicochemical; settings: 0.1 M Tris‐HCl buffer pH 7.4, −0.5 to 1.0 V, sweep rate 0.1 V/s, –[b] = no oxidation observed in the specified potential range
[3] = tested on: TAMH mouse liver cell line; settings: mouse, 24 h
[4] = tested on: HEP‐G2 human hepatoma cell line; settings: human, 24 h
KV7.2/3 channel = KV7.2/3 channel (Homo sapiens, UniProt O43525+O43526); assay: KV7.2/3 channel opening activity, thallium-flux FLIPR Potassium Assay in HEK-293 cells overexpressing KV7.2/3; set-up: Emax: dose or concentration left out as unconfirmed; settings: for Emax: HEK293E, read-out: Efficacy
Chain of KV7.2/3 channel (O43525 whole entry): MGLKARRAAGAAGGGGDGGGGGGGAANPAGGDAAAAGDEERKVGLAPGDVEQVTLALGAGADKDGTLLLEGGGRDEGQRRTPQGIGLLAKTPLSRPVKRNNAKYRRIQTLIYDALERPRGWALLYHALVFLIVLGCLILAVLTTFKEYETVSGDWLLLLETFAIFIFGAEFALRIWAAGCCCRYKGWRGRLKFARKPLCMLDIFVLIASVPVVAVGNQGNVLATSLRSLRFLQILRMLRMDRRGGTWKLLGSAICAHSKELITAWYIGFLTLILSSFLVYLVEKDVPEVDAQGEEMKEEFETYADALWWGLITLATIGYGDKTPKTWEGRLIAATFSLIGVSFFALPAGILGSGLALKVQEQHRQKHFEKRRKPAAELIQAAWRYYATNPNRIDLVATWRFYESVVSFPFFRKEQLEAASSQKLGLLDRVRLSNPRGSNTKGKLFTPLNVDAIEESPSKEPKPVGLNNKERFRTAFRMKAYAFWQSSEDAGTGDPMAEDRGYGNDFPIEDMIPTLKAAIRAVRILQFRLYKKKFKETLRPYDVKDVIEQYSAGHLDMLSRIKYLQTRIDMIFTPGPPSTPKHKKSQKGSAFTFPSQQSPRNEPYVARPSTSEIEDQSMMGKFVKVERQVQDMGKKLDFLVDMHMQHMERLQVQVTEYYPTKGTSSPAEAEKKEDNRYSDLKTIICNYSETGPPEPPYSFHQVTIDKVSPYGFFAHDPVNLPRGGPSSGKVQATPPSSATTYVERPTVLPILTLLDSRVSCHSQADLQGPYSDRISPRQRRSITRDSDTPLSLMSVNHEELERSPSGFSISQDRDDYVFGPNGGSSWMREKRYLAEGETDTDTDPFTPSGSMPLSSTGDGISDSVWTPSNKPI
Chain of KV7.2/3 channel (O43526 whole entry): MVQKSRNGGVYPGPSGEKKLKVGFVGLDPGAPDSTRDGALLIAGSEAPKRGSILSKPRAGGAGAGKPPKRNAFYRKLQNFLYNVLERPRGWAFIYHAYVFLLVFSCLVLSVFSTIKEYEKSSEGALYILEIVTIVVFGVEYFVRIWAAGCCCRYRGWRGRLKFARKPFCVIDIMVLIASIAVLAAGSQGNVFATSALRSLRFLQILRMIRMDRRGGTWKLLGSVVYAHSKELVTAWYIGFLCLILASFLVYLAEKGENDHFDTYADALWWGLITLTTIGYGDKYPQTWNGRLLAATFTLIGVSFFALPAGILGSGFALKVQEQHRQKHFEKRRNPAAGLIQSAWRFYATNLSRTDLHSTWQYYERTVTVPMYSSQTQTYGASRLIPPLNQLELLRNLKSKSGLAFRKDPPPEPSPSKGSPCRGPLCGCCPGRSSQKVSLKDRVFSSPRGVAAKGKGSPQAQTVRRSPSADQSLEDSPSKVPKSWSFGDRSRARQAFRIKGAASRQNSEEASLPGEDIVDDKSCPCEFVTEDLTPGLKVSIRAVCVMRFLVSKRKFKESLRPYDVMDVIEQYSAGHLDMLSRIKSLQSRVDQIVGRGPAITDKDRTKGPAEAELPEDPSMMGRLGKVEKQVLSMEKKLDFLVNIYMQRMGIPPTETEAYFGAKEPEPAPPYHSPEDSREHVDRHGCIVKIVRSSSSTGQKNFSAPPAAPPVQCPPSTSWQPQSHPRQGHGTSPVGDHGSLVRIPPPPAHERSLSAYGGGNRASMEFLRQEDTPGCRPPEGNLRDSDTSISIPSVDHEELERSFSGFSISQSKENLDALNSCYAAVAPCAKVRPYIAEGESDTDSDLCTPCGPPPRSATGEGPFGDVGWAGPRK

[5] = pH 7.4, calculated from retention time with one calibration function (A–F), Table S7, read-out: logD7.4 (single determination)
[6] = pH 7.4, estimated by HPLC-based method, pH 7.4, read-out: LogD 7.4
[7] = HEK‐293 cells overexpressing KV7.2/3
[8] = KV7.2/3 opening, ratio of EC50 values

Cc1cc(CNc2ccc(F)cc2)ccc1NC(=O)c1ccccc1CO [compound 48, N ‐(4‐{[(4‐Fluorophenyl)amino]methyl}‐2‐methylphenyl)‐2‐(hydroxymethyl)benzamide]
logD7.4 (single determination) ([1]; Table S7): 2.899 | chromatographic logD [1, 5]: 2.93 | chromatographic logD [1, 6]: 2.9 | Ep.a. (anodic peak potential) [2]: no anodic peak potential could be determined; also recorded: –^[b] | LD25 (concentration to reduce cell viability by 25 %) [3]: 70 ± 10 µM | LD50 (concentration to reduce cell viability by 50 %) [3]: >125 µM | LD25 (concentration to reduce cell viability by 25 %) [4]: 80 ± 7 µM | LD50 (concentration to reduce cell viability by 50 %) [4]: 84 ± 6 µM | KV7.2/3 opening activity (in words) (KV7.2/3 channel; [7]): inactive | EC50 (required concentration to reach half‐maximal KV7.2/3 channel opening activity) (KV7.2/3 channel; HEK‐293 cells overexpressing KV7.2/3, mean ± SD, at least three determinations, –[e] = inactive up to a concentration of 20 μM): –^[e] | Efficacy (KV7.2/3 channel; maximal fluorescence signal relative to flupirtine (100 %), HEK‐293, –[e] = inactive up to a concentration of 20 μM): –^[e]

Cc1cc(CNc2ccc(F)cc2)ccc1NC(=O)CCn1cccn1 [compound 53, N ‐(4‐{[(4‐Fluorophenyl)amino]methyl}‐2‐methylphenyl)‐3‐(1H ‐pyrazol‐1‐yl)propanamide]
logD7.4 (single determination) ([1]; Table S7): 2.924 | chromatographic logD [1, 5]: 2.93 | chromatographic logD [1, 6]: 2.9 | Ep.a. (anodic peak potential) [2]: no anodic peak potential could be determined; also recorded: –^[b] | LD25 (concentration to reduce cell viability by 25 %) [3]: >63 µM | LD50 (concentration to reduce cell viability by 50 %) [3]: >63 µM | LD25 (concentration to reduce cell viability by 25 %) [4]: >63 µM | LD50 (concentration to reduce cell viability by 50 %) [4]: >63 µM | EC50 (KV7.2/3 channel): 2.36 ± 0.543 µM | Emax (KV7.2/3 channel): 144 ± 42% | KV7.2/3 opening activity (in words) (KV7.2/3 channel; [7]): fair KV7.2/3 opening activity | fold decrease in potency compared to butanoylamino sidechain (35 a) (KV7.2/3 channel; [8]): 3.5 fold

CCCC(=O)Nc1ccc(CNc2ccc(F)cc2)cc1F [35 c, N ‐(2‐Fluoro‐4‐{[(4‐fluorophenyl)amino]methyl}phenyl)butyramide]
logD7.4 (single determination) ([1]; Table S7): 2.980 | chromatographic logD [1, 5]: 2.96 | chromatographic logD [1, 6]: 3 | Ep.a. (anodic peak potential) [2]: 643 mV | LD25 (concentration to reduce cell viability by 25 %) [3]: >63 µM | LD50 (concentration to reduce cell viability by 50 %) [3]: >63 µM | LD25 (concentration to reduce cell viability by 25 %) [4]: >63 µM | LD50 (concentration to reduce cell viability by 50 %) [4]: >63 µM | EC50 (KV7.2/3 channel): 1.51 ± 0.364 µM | Emax (KV7.2/3 channel): 167 ± 16%

CCCC(=O)Nc1c(C)cc(CNc2ccc(F)cc2)cc1C [35 a, N ‐(4‐{[(4‐Fluorophenyl)amino]methyl}‐2,6‐dimethylphenyl)butyramide]
logD7.4 (single determination) ([1]; Table S7): 3.023 | chromatographic logD [1, 5]: 3.04 | chromatographic logD [1, 6]: 3 | Ep.a. (anodic peak potential) [2]: 633 mV | LD50 (concentration to reduce cell viability by 50 %) [3]: >125 µM | LD50 (concentration to reduce cell viability by 50 %) [4]: >125 µM | EC50 (KV7.2/3 channel): 0.143 ± 0.02 µM | Emax (KV7.2/3 channel): 143 ± 7% | KV7.2/3 opening activity (in words) (KV7.2/3 channel; [7]): submicromolar activity | fold increase in potency compared to 35 b (KV7.2/3 channel; [8]): 4.7 fold

CCCC(=O)Nc1ncc(CNc2ccc(F)cc2)cc1Br [42 a, N ‐(3‐Bromo‐5‐{[(4‐fluorophenyl)amino]methyl}pyridin‐2‐yl)butyramide]
logD7.4 (single determination) ([1]; Table S7): 2.714 | chromatographic logD [1, 5]: 2.71 | chromatographic logD [1, 6]: 2.7 | Ep.a. (anodic peak potential) [2]: 668 mV | LD25 (concentration to reduce cell viability by 25 %) [3]: >63 µM | LD50 (concentration to reduce cell viability by 50 %) [3]: >63 µM | LD25 (concentration to reduce cell viability by 25 %) [4]: >63 µM | LD50 (concentration to reduce cell viability by 50 %) [4]: >63 µM | EC50 (KV7.2/3 channel): 5.45 ± 1.7 µM | Emax (KV7.2/3 channel): 163 ± 23%

CCCC(=O)Nc1ncc(CNc2ccc(F)cc2)cc1C1CC1 [43 c, N ‐(3‐Cyclopropyl‐5‐{[(4‐fluorophenyl)amino]methyl}pyridin‐2‐yl)butyramide]
logD7.4 (single determination) ([1]; Table S7): 2.772 | chromatographic logD [1, 5]: 2.77 | chromatographic logD [1, 6]: 2.8 | Ep.a. (anodic peak potential) [2]: 678 mV | LD25 (concentration to reduce cell viability by 25 %) [3]: 76 ± 52 µM | LD50 (concentration to reduce cell viability by 50 %) [3]: >125 µM | LD25 (concentration to reduce cell viability by 25 %) [4]: 55 ± 17 µM | LD50 (concentration to reduce cell viability by 50 %) [4]: >125 µM | EC50 (KV7.2/3 channel): 2.02 ± 1.2 µM | Emax (KV7.2/3 channel): 138 ± 20% | fold increase in potency compared to 43 a (KV7.2/3 channel; [8]): 2.4 fold | increase in efficiency compared to 43 a (KV7.2/3 channel; difference of efficacy values): 49%

CCCC(=O)Nc1ncc(CNc2ccc(F)cc2)cc1C [43 a, N ‐(5‐{[(4‐Fluorophenyl)amino]methyl}‐3‐methylpyridin‐2‐yl)butyramide]
logD7.4 (single determination) ([1]; Table S7): 2.341 | chromatographic logD [1, 5]: 2.33 | chromatographic logD [1, 6]: 2.3 | Ep.a. (anodic peak potential) [2]: 678 mV | LD25 (concentration to reduce cell viability by 25 %) [3]: 110 ± 54 µM | LD50 (concentration to reduce cell viability by 50 %) [3]: >125 µM | LD25 (concentration to reduce cell viability by 25 %) [4]: 46 ± 24 µM | LD50 (concentration to reduce cell viability by 50 %) [4]: >125 µM | EC50 (KV7.2/3 channel): 4.84 ± 2.91 µM | Emax (KV7.2/3 channel): 89 ± 32%
